Where two headings read alike, the source gives them in different places. Where a SMILES comes first, the peptide text is derived from it. [ ]: non-standard residue; d: D form. The star is where a group is joined. Stearoyl = CCCCCCCCCCCCCCCCCC(=O)*; Aib = CC(C)(N)C(=O)O
Tests used:
[1] = molecular target: T1, human GLP-1 receptor (Homo sapiens, UniProt P43220); experiment: GLP-1 receptor potency assay (cAMP ALPHASCREEN, HEK293 cells stably expressing GLP-1 R); format: cell-based; details: cAMP response, HEK293 cells expressing human GLP-1 R
T1 construct: expressed in transfected cells
T1 sequence (P43220 24-463): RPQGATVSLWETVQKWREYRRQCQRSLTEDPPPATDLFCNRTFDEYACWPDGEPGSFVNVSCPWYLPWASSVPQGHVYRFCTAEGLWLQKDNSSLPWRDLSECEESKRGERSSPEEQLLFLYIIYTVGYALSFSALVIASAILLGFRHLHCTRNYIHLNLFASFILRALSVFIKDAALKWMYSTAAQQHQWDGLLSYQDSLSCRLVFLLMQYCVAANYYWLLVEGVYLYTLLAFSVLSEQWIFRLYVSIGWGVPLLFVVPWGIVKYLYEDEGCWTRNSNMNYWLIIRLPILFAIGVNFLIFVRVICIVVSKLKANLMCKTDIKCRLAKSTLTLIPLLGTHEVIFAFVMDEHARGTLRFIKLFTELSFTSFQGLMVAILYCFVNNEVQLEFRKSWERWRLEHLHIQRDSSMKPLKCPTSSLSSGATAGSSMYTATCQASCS
Text: One useful in vitro assay for measuring GLP-1 and GLP-2 receptor activity is quantitation of cAMP, i.e. 3′-5′-cyclic adenosine monophosphate, which is a second messenger essential in many biological processes, and one of the most ubiquitous mechanisms for regulating cellular functions.
The cDNA encoding the human glucagon-like peptide 1 receptor (GLP-1 R) (primary accession number P43220) was cloned from the cDNA BC112126 (MGC:138331/IMAGE:8327594). The DNA encoding the GLP-1-R was amplified by PCR using primers encoding terminal restriction sites for subcloning. The 5′-end primers additionally encoded a near Kozak consensus sequence to ensure efficient translation. […] The PCR products encoding the GLP-1-R were subcloned into a mammalian expression vector containing a neomycin (G418) resistance marker. The mammalian expression vectors encoding the GLP-1-R were transfected into HEK293 cells by a standard calcium phosphate transfection method. 48 hours post-transfection, cells were seeded for limited dilution cloning and selected with 1 mg/ml G418 in the culture medium. Following 3 weeks in G418 selection clones were picked and tested in a functional GLP-1 receptor potency assay as described below.
The cAMP ALPHASCREEN® assay from Perkin Elmer was used to quantitate the cAMP response to activation of the GLP1 and GLP2 receptor, respectively. […] Data from test compounds eliciting an increase in the intracellular level of cAMP were normalized relative to the positive and negative control (vehicle) to calculate the EC50 and maximal response from the concentration response curve.

[2] = Solubility assessment (turbidity absorbance at 325 nm); format: physicochemical
Outline: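 Peptide stock at 2 mg/ml in water at pH 2.5 diluted 1:1 into 100 mM acetate (pH 4.0, 5.0), histidine (pH 6.0, 7.0) or phosphate (pH 6.0, 7.0, 7.5) buffer. Absorbance at 280 and 325 nm read at ambient temperature (typically 25 °C), single samples (n=1).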

[3] = Chemical stability (RP-HPLC normalized purity after incubation at 40° C.); format: physicochemical; details: 14-day incubation, 0.2 mg/ml, normalized purity (area-%); for pH 7 normalized stability: pH 7, 40° C.; for pH 6 normalized stability: pH 6, 40° C.
Outline: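 Peptide at 0.2 mg/ml final in water adjusted to pH 6, 7, 7.5 or 9, incubated at 40° C for 14 days. Purity measured as main-peak area-% by C18 RP-HPLC (acetonitrile/TFA/water gradient, UV 220 nm) and normalized to T=0 set at 100 for each pH.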

[4] = molecular target: T2, human GLP-2 receptor (Homo sapiens, UniProt O95838, D470N); experiment: GLP-2 receptor potency assay (cAMP ALPHASCREEN, HEK293 cells stably expressing GLP-2 R); format: cell-based; details: cAMP response, HEK293 cells expressing human GLP-2 R; read-out: EC50 GLP-2
T2 construct: expressed in transfected cells
T2 sequence (O95838 1-553 D470N): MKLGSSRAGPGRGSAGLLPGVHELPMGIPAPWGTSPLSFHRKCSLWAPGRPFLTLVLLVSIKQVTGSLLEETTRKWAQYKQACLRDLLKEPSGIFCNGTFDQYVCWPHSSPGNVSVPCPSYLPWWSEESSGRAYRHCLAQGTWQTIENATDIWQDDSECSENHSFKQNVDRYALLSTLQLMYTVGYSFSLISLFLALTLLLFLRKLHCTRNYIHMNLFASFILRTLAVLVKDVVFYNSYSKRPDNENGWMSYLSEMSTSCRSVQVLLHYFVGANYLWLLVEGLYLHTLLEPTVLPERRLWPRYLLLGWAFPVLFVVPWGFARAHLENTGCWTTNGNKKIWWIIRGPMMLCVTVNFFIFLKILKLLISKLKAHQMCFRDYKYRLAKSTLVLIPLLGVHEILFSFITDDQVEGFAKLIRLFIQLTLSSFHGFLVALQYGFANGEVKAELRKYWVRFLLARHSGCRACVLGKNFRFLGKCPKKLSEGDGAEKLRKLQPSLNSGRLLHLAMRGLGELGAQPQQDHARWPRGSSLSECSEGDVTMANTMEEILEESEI
Outline: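 HEK293 clones stably transfected with the human GLP-2 receptor, selected with G418, were used. Intracellular cAMP was quantified by AlphaScreen. Responses were normalised to positive and vehicle controls, and EC50 and maximal response were taken from concentration-response curves.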

[5] = 100 mM acetate buffer pH 4.0, ambient temperature, read-out: Solubility Acetate buffer pH 4
[6] = 100 mM acetate buffer pH 5.0, ambient temperature, read-out: Solubility Acetate buffer pH 5
[7] = 100 mM histidine buffer pH 6.0, ambient temperature, read-out: Solubility Histidine buffer pH 6
[8] = 100 mM histidine buffer pH 7.0, ambient temperature, read-out: Solubility Histidine buffer pH 7
[9] = 100 mM phosphate buffer pH 6.0, ambient temperature, read-out: Solubility Phosphate buffer pH 6
[10] = 100 mM phosphate buffer pH 7.0, ambient temperature, read-out: Solubility Phosphate buffer pH 7
[11] = 100 mM phosphate buffer pH 7.5, ambient temperature, read-out: Solubility Phosphate buffer pH 7.5

EC50 [1]	solubility [2, 5]	solubility [2, 6]	solubility [2, 7]	solubility [2, 8]	solubility [2, 9]	solubility [2, 10]	solubility [2, 11]	pH 7 normalized stability [3]	EC50 [4]	pH 6 normalized stability [3]	Structure (SMILES)
0.32 nM											CCCCCCCCCCCCCCCCCC(=O)NCCCC[C@H](NC(=O)[C@H](CC(=O)O)NC(=O)[C@H](CC(C)C)NC(=O)[C@@H](NC(=O)[C@@H](NC(=O)[C@H](C)NC(=O)[C@H](CC(C)C)NC(=O)[C@H](CCC(=O)O)NC(=O)[C@H](CO)NC(=O)[C@@H](NC(=O)[C@H](Cc1ccccc1)NC(=O)[C@H](CO)NC(=O)CNC(=O)[C@H](CCC(=O)O)NC(=O)C(C)(C)NC(=O)[C@@H](N)Cc1c[nH]cn1)[C@@H](C)O)[C@@H](C)O)[C@@H](C)CC)C(=O)N[C@@H](CCC(N)=O)C(=O)N[C@@H](C)C(=O)N[C@@H](C)C(=O)N[C@@H](CCCNC(=N)N)C(=O)N[C@@H](CC(=O)O)C(=O)N[C@@H](Cc1ccccc1)C(=O)N[C@H](C(=O)N[C@@H](C)C(=O)N[C@@H](Cc1c[nH]c2ccccc12)C(=O)N[C@@H](CC(C)C)C(=O)N[C@H](C(=O)N[C@@H](CCC(N)=O)C(=O)N[C@@H](Cc1ccc(O)cc1)C(=O)N[C@@H](CCCCN)C(=O)N[C@H](C(=O)N[C@H](C(=O)N[C@@H](CC(=O)O)C(=O)O)[C@@H](C)O)[C@@H](C)CC)[C@@H](C)CC)[C@@H](C)CC [Compound 36] (H-H[Aib]EGSFTSELATILDK(Stearoyl)QAARDFIAWLIQYKITD-OH)
	< 1000 µg/mL	< 1000 µg/mL	≥ 1000 µg/mL	≥ 1000 µg/mL	≥ 1000 µg/mL	≥ 1000 µg/mL	≥ 1000 µg/mL	A (>90% normalised stability)	0.33 nM		CC[C@H](C)[C@H](NC(=O)[C@H](Cc1ccccc1)NC(=O)[C@H](CC(=O)O)NC(=O)[C@H](CCCNC(=N)N)NC(=O)[C@H](C)NC(=O)[C@H](C)NC(=O)[C@H](CCC(N)=O)NC(=O)[C@H](CCCCNC(=O)CC[C@H](NC(=O)CCCCCCCCCCCCCCCCC(=O)O)C(=O)O)NC(=O)[C@H](CC(=O)O)NC(=O)[C@H](CC(C)C)NC(=O)[C@@H](NC(=O)[C@@H](NC(=O)[C@H](C)NC(=O)[C@H](CC(C)C)NC(=O)[C@H](CCC(=O)O)NC(=O)[C@H](CO)NC(=O)[C@@H](NC(=O)[C@H](Cc1ccccc1)NC(=O)[C@@H](NC(=O)CNC(=O)[C@H](CCC(=O)O)NC(=O)C(C)(C)NC(=O)[C@@H](N)Cc1c[nH]cn1)[C@@H](C)O)[C@@H](C)O)[C@@H](C)O)[C@@H](C)CC)C(=O)N[C@@H](C)C(=O)N[C@@H](Cc1c[nH]c2ccccc12)C(=O)N[C@@H](CC(C)C)C(=O)N[C@H](C(=O)N[C@@H](CCC(=O)O)C(=O)N[C@@H](Cc1c[nH]cn1)C(=O)N[C@@H](CCCCN)C(=O)N[C@H](C(=O)N[C@H](C(=O)N[C@@H](CC(=O)O)C(=O)O)[C@@H](C)O)[C@@H](C)CC)[C@@H](C)CC [Compound 25] (HELM PEPTIDE1{H.[Aib].E.G.T.F.T.S.E.L.A.T.I.L.D.K.Q.A.A.R.D.F.I.A.W.L.I.E.H.K.I.T.D}|PEPTIDE2{[O=C(O)CCCCCCCCCCCCCCCCC(=O)[*:2]].[gGlu]}$PEPTIDE1,PEPTIDE2,16:R3-2:R2$$$V2.0)
	< 1000 µg/mL	< 1000 µg/mL	≥ 1000 µg/mL	≥ 1000 µg/mL	≥ 1000 µg/mL	≥ 1000 µg/mL	≥ 1000 µg/mL	A (>90% normalised stability)	0.17 nM	B (>80% stability)	CC[C@H](C)[C@H](NC(=O)[C@H](Cc1ccccc1)NC(=O)[C@H](CC(=O)O)NC(=O)[C@H](CCCNC(=N)N)NC(=O)[C@H](C)NC(=O)[C@H](C)NC(=O)[C@H](CCC(N)=O)NC(=O)[C@H](CCCCNC(=O)CC[C@H](NC(=O)CCCCCCCCCCCCCCCCC(=O)O)C(=O)O)NC(=O)[C@H](CC(=O)O)NC(=O)[C@H](CC(C)C)NC(=O)[C@@H](NC(=O)[C@@H](NC(=O)[C@H](C)NC(=O)[C@H](CC(C)C)NC(=O)[C@H](CCC(=O)O)NC(=O)[C@H](CO)NC(=O)[C@@H](NC(=O)[C@H](Cc1ccccc1)NC(=O)[C@H](CO)NC(=O)CNC(=O)[C@H](CCC(=O)O)NC(=O)C(C)(C)NC(=O)[C@@H](N)Cc1c[nH]cn1)[C@@H](C)O)[C@@H](C)O)[C@@H](C)CC)C(=O)N[C@@H](C)C(=O)N[C@@H](Cc1c[nH]c2ccccc12)C(=O)N[C@@H](CC(C)C)C(=O)N[C@H](C(=O)N[C@@H](CCC(=O)O)C(=O)N[C@@H](Cc1c[nH]cn1)C(=O)N[C@@H](CCCCN)C(=O)N[C@H](C(=O)N[C@H](C(=O)N[C@@H](CC(=O)O)C(=O)O)[C@@H](C)O)[C@@H](C)CC)[C@@H](C)CC [Compound 24] (HELM PEPTIDE1{H.[Aib].E.G.S.F.T.S.E.L.A.T.I.L.D.K.Q.A.A.R.D.F.I.A.W.L.I.E.H.K.I.T.D}|PEPTIDE2{[O=C(O)CCCCCCCCCCCCCCCCC(=O)[*:2]].[gGlu]}$PEPTIDE1,PEPTIDE2,16:R3-2:R2$$$V2.0)
	< 1000 µg/mL	< 1000 µg/mL	≥ 1000 µg/mL	≥ 1000 µg/mL	≥ 1000 µg/mL	≥ 1000 µg/mL	≥ 1000 µg/mL	B (>80% stability)	0.2 nM	A (>90% normalised stability)	CC[C@H](C)[C@H](NC(=O)[C@H](CC(C)C)NC(=O)[C@H](Cc1c[nH]c2ccccc12)NC(=O)[C@H](C)NC(=O)[C@@H](NC(=O)[C@H](Cc1ccccc1)NC(=O)[C@H](CC(=O)O)NC(=O)[C@H](CCCNC(=N)N)NC(=O)[C@H](C)NC(=O)[C@H](C)NC(=O)[C@H](CCC(N)=O)NC(=O)[C@H](CCCCNC(=O)CC[C@H](NC(=O)CCCCCCCCCCCCCCCCC(=O)O)C(=O)O)NC(=O)[C@H](CC(=O)O)NC(=O)[C@H](CC(C)C)NC(=O)[C@@H](NC(=O)[C@@H](NC(=O)[C@H](C)NC(=O)[C@H](CC(C)C)NC(=O)[C@H](CCC(=O)O)NC(=O)[C@H](CO)NC(=O)[C@@H](NC(=O)[C@H](Cc1ccccc1)NC(=O)[C@H](CO)NC(=O)CNC(=O)[C@H](CCC(=O)O)NC(=O)C(C)(C)NC(=O)[C@@H](N)Cc1c[nH]cn1)[C@@H](C)O)[C@@H](C)O)[C@@H](C)CC)[C@@H](C)CC)C(=O)N[C@@H](C)C(=O)N[C@@H](Cc1c[nH]cn1)C(=O)N[C@@H](CCCCN)C(=O)N[C@H](C(=O)N[C@H](C(=O)N[C@@H](CC(=O)O)C(=O)O)[C@@H](C)O)[C@@H](C)CC [Compound 22] (HELM PEPTIDE1{H.[Aib].E.G.S.F.T.S.E.L.A.T.I.L.D.K.Q.A.A.R.D.F.I.A.W.L.I.A.H.K.I.T.D}|PEPTIDE2{[O=C(O)CCCCCCCCCCCCCCCCC(=O)[*:2]].[gGlu]}$PEPTIDE1,PEPTIDE2,16:R3-2:R2$$$V2.0)

Source: US11395847B2, “Acylated GLP-1/GLP-2 dual agonists” (Zealand Pharma A/S, priority 2016, dated 2022)
